We go through 6 compounds from patent US20150018311A1, “THERAPEUTIC BORON-CONTAINING COMPOUNDS” (priority 2012, published 2015).

The structures appear in SMILES notation.

What all share (assay): Growth in liquid media in presence of test compound
Type in all cases: cell-based

Assay [1] relates to Mycobacterium tuberculosis (H37Rv).
Assay [2] deals with Pseudomonas aeruginosa (ATCC 27853).
In assay [3] the test system is Staphylococcus aureus (ATCC 25923).
In assay [4] the test system is Escherichia coli (ATCC 25922).
The test system of assay [5] is Streptococcus pyogenes (ATCC 19615).
The subject of assay [6] is Candida albicans (ATCC 90028).

As to `CC1(C)C2CC3OB([C@@H](CNC(=O)[C@@H](N)Cc4ccccc4)Cc4ccc(F)cc4)O[C@]3(C)C1C2.Cl` (stereo partly drawn) [Compound 49], the “Growth in the presence of test compound, M. tuberculosis” value (“Growth … M. tuberculosis” below) was “±” in assay [1] (5 mg/L), “−” in assay [1] (50 mg/L) and “−” in assay [1] (500 mg/L). The “Growth in the presence of test compound, P. aeruginosa” value (“Growth … P. aeruginosa” for short) in assay [2] (5 mg/L), in assay [2] (50 mg/L) and in assay [2] (500 mg/L) was “+” throughout. For the same compound, the “Growth in the presence of test compound, S. aureus” value (“Growth in the presence … S. aureus” below) in assay [3] (5 mg/L), in assay [3] (50 mg/L) and in assay [3] (500 mg/L) was “+” in each case. The “Growth in the presence of test compound, E. coli” value (shortened to “Growth in the presence … E. coli”) in assay [4] (5 mg/L), in assay [4] (50 mg/L) and in assay [4] (500 mg/L) was “+” each time. Further, the “Growth in the presence of test compound, S. pyogenes” value (shortened to “Growth in the presence … S. pyogenes”) in assay [5] (5 mg/L), in assay [5] (50 mg/L) and in assay [5] (500 mg/L) was “+” in each case. Besides, the “Growth in the presence of test compound, C. albicans” value (shortened to “Growth in the presence … C. albicans”) in assay [6] (5 mg/L), in assay [6] (50 mg/L) and in assay [6] (500 mg/L) was “+” each time.

With `Cl.N[C@@H](Cc1ccccc1)C(=O)NC[C@@H](Cc1ccc(F)cc1)B(O)O` [Compound 50], the figures for the “Growth … M. tuberculosis” value in assay [1] (5 mg/L), in assay [1] (50 mg/L) and in assay [1] (500 mg/L) were “±”, “−” and “−”, respectively. Also, the “Growth … P. aeruginosa” value was “+” in assay [2] (5 mg/L), “+” in assay [2] (50 mg/L) and “±” in assay [2] (500 mg/L). The “Growth in the presence … S. aureus” value was “+” in assay [3] (5 mg/L), “+” in assay [3] (50 mg/L) and “−” in assay [3] (500 mg/L). For the same compound, the “Growth in the presence … E. coli” value in assay [4] (5 mg/L) was “+”; in assay [4] (50 mg/L) it was “+”; in assay [4] (500 mg/L), “−”. Moreover, the “Growth in the presence … S. pyogenes” value is “+” in assay [5] (5 mg/L), “+” in assay [5] (50 mg/L) and “−” in assay [5] (500 mg/L). In addition, the “Growth in the presence … C. albicans” value in assay [6] (5 mg/L), in assay [6] (50 mg/L) and in assay [6] (500 mg/L) was “+” each time.

In the case of `CC1(C)C2CC3OB(C(CNC(=O)C(N)CCCCN)Cc4ccc(F)cc4)OC3(C)C1C2.Cl.Cl` (stereo not drawn) [Compound 51], the “Growth … M. tuberculosis” value in assay [1] (5 mg/L) is given as “+”; in assay [1] (50 mg/L), “−”; in assay [1] (500 mg/L) it was “−”. Moreover, the “Growth … P. aeruginosa” value in assay [2] (5 mg/L) is given as “+”; in assay [2] (50 mg/L), “+”; in assay [2] (500 mg/L) it was “−”. The figures for the “Growth in the presence … S. aureus” value in assay [3] (5 mg/L), in assay [3] (50 mg/L) and in assay [3] (500 mg/L) were “+”, “+” and “−”, respectively. The figures for the “Growth in the presence … E. coli” value in assay [4] (5 mg/L), in assay [4] (50 mg/L) and in assay [4] (500 mg/L) were “+”, “+” and “−”, respectively. Moreover, the “Growth in the presence … S. pyogenes” value in assay [5] (5 mg/L) was “+”; in assay [5] (50 mg/L), “+”; in assay [5] (500 mg/L), “−”. The “Growth in the presence … C. albicans” value is “+” in assay [6] (5 mg/L), “+” in assay [6] (50 mg/L) and “−” in assay [6] (500 mg/L).

Regarding `Cl.Cl.NCCCC[C@H](N)C(=O)NC[C@@H](Cc1ccc(OC(F)(F)F)cc1)B(O)O` [Compound 52], the “Growth … M. tuberculosis” value in assay [1] (5 mg/L) was “±”; in assay [1] (50 mg/L) it was “±”; in assay [1] (500 mg/L), “−”. In addition, the “Growth … P. aeruginosa” value in assay [2] (5 mg/L), in assay [2] (50 mg/L) and in assay [2] (500 mg/L) was “+” in each case. Besides, the “Growth in the presence … S. aureus” value in assay [3] (5 mg/L), in assay [3] (50 mg/L) and in assay [3] (500 mg/L) was “+” throughout. Besides, the “Growth in the presence … E. coli” value in assay [4] (5 mg/L), in assay [4] (50 mg/L) and in assay [4] (500 mg/L) was “+” throughout. Also, the “Growth in the presence … S. pyogenes” value in assay [5] (5 mg/L) is given as “+”; in assay [5] (50 mg/L), “+”; in assay [5] (500 mg/L), “±”. The results for the “Growth in the presence … C. albicans” value in assay [6] (5 mg/L), in assay [6] (50 mg/L) and in assay [6] (500 mg/L) were “+”, “+” and “−”, respectively.

In the case of `CC1(C)C2CC3OB(C(CNC(=O)C(N)CCCCN)Cc4ccc(OC(F)(F)F)cc4)OC3(C)C1C2.Cl.Cl` (stereo not drawn) [Compound 53], the “Growth … M. tuberculosis” value in assay [1] (5 mg/L) is on record as “±”; in assay [1] (50 mg/L), “−”; in assay [1] (500 mg/L), “−”. Also, the “Growth … P. aeruginosa” value in assay [2] (5 mg/L) was “+”; in assay [2] (50 mg/L), “+”; in assay [2] (500 mg/L) it was “−”. In addition, the “Growth in the presence … S. aureus” value in assay [3] (5 mg/L), in assay [3] (50 mg/L) and in assay [3] (500 mg/L) was “+” each time. Moreover, the “Growth in the presence … E. coli” value in assay [4] (5 mg/L), in assay [4] (50 mg/L) and in assay [4] (500 mg/L) was “+” throughout. The “Growth in the presence … S. pyogenes” value in assay [5] (5 mg/L) is reported as “+”; in assay [5] (50 mg/L) it was “+”; in assay [5] (500 mg/L), “−”. Moreover, the “Growth in the presence … C. albicans” value in assay [6] (5 mg/L) is “+”; in assay [6] (50 mg/L), “+”; in assay [6] (500 mg/L), “−”.

In the case of `CC1(C)C2CC3OB(CC(Cc4ccccc4)NC(=O)C(N)CCCCN)OC3(C)C1C2` (stereo not drawn) [Compound 54], the “Growth … M. tuberculosis” value is given as “+” in assay [1] (5 mg/L), “+” in assay [1] (50 mg/L) and “−” in assay [1] (500 mg/L). The entries for the “Growth … P. aeruginosa” value in assay [2] (5 mg/L), in assay [2] (50 mg/L) and in assay [2] (500 mg/L) were “+”, “+” and “−”, respectively. For the same compound, the “Growth in the presence … S. aureus” value in assay [3] (5 mg/L) was “+”; in assay [3] (50 mg/L) it was “+”; in assay [3] (500 mg/L), “−”. Besides, the “Growth in the presence … E. coli” value is on record as “+” in assay [4] (5 mg/L), “+” in assay [4] (50 mg/L) and “−” in assay [4] (500 mg/L). The “Growth in the presence … S. pyogenes” value is recorded as “+” in assay [5] (5 mg/L), “+” in assay [5] (50 mg/L) and “−” in assay [5] (500 mg/L). The entries for the “Growth in the presence … C. albicans” value in assay [6] (5 mg/L), in assay [6] (50 mg/L) and in assay [6] (500 mg/L) were “+”, “+” and “−”, respectively.
